Measurements: patent US20240382481A1 (priority 2021, published 2024)

What was measured:
Experiment in all cases: biochemical
SRPK3/MSSK1/STK23 = SRPK3/MSSK1/STK23 (Homo sapiens, UniProt Q9UPE1)
SRPK1 = SRPK1 (Homo sapiens, UniProt Q96SB4)
SRPK2 = SRPK2 (Homo sapiens, UniProt P78362)
Chain of SRPK2 (P78362 whole entry, species assumed): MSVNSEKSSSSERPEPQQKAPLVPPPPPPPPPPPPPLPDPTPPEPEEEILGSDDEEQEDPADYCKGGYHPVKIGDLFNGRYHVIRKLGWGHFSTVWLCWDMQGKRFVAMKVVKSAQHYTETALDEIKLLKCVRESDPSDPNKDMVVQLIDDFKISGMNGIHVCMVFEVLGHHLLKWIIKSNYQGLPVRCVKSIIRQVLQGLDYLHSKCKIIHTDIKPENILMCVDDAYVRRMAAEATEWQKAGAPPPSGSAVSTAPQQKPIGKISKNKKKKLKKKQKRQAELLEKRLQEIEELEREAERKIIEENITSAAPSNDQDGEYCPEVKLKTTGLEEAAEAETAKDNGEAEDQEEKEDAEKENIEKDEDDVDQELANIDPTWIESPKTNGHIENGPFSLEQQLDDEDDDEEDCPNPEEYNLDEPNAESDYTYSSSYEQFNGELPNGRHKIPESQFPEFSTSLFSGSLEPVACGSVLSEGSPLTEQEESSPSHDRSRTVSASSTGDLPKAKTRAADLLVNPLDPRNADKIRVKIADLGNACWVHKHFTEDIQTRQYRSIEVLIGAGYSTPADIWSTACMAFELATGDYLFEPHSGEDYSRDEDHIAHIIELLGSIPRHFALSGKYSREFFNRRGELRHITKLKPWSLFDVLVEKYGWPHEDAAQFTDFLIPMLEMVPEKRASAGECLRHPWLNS

Chain of SRPK3/MSSK1/STK23 (Q9UPE1 whole entry): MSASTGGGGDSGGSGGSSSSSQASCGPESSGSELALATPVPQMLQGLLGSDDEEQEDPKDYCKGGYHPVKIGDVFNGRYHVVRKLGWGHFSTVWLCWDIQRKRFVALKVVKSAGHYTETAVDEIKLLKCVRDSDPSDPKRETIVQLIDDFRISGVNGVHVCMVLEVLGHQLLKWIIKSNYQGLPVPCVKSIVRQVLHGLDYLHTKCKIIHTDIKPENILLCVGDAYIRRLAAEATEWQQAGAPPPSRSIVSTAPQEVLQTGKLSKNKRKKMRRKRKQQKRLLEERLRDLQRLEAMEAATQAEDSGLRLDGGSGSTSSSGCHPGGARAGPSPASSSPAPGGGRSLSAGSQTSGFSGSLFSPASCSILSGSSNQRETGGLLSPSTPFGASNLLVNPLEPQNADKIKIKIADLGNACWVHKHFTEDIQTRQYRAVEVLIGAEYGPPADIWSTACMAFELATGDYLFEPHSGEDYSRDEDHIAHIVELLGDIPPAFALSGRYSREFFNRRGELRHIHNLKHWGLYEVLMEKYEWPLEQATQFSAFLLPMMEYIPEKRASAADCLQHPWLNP
Chain of SRPK1 (Q96SB4 whole entry, species assumed): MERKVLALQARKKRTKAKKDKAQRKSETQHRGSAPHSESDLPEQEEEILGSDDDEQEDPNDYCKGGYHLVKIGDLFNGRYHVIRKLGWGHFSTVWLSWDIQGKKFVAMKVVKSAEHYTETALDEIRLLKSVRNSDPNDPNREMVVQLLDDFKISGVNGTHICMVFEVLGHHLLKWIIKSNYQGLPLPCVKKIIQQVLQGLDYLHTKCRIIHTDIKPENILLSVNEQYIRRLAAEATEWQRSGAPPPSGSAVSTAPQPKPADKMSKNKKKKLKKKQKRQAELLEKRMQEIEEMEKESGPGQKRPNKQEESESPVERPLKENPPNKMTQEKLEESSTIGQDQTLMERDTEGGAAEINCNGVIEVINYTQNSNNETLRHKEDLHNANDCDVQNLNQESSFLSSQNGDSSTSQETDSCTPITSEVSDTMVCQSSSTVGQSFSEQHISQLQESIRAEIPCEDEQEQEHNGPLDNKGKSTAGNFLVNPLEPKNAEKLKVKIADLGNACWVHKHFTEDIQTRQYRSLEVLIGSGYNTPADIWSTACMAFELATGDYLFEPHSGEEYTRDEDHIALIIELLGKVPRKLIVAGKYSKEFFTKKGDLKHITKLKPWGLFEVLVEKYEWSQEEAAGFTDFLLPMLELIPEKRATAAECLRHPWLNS

IC50 (SRPK3/MSSK1/STK23)	IC50 (SRPK1)	IC50 (SRPK2)	SMILES
< 50 nM	50 to 500 nM	500 to 2500 nM	CN(c1ncccc1CNc1ccnc(-c2nc3cc(C(C)(C)C)c(F)cc3[nH]2)n1)S(C)(=O)=O [Compound B18]
< 50 nM	50 to 500 nM	50 to 500 nM	CN(c1ncccc1CNc1cccc(-c2nc3cc(Cl)ccc3n2C)n1)S(C)(=O)=O [Compound B6]
	< 50 nM	50 to 500 nM	CN(c1ccccc1CNc1cccc(-c2nc3cc(Cl)ccc3[nH]2)n1)S(C)(=O)=O [Compound B3]
	50 to 500 nM	500 to 2500 nM	CN(c1ncncc1CNc1ccnc(-c2nc3cc(Cl)ccc3[nH]2)n1)S(C)(=O)=O [Compound B4]
< 50 nM	< 50 nM	50 to 500 nM	Cc1cc(Cl)cc2nc(-c3nccc(NCc4cccnc4N(C)S(C)(=O)=O)n3)[nH]c12 [Compound B9]
	< 50 nM	500 to 2500 nM	CCn1c(-c2nccc(NCc3cccnc3N(C)S(C)(=O)=O)n2)nc2cc(Cl)ccc21 [Compound B15]
500 to 2500 nM	50 to 500 nM	50 to 500 nM	CN(c1ncccc1Cn1c(=O)ccc2cnc(-c3nc4cc(Cl)ccc4[nH]3)cc21)S(C)(=O)=O [Compound B20]
		50 to 500 nM	CN(c1ncccc1CNc1ccnc(-c2nc3cc(Cl)c(Cl)cc3n2C)n1)S(C)(=O)=O [Compound B19]
50 to 500 nM	< 50 nM	50 to 500 nM	Cc1cc2cnc(-c3nc4cc(Cl)ccc4n3C)nc2n1Cc1cccnc1N(C)S(C)(=O)=O [Compound B21]
	< 50 nM	50 to 500 nM	CCN(c1ncccc1CNc1ccnc(-c2nc3cc(Cl)ccc3[nH]2)n1)S(C)(=O)=O [Compound B8]
50 to 500 nM	50 to 500 nM	50 to 500 nM	CCN(c1ncccc1Cn1ccc2cnc(-c3nc4cc(Cl)ccc4[nH]3)cc21)S(C)(=O)=O [Compound B16]
50 to 500 nM	< 50 nM	50 to 500 nM	Cc1cc2cnc(-c3nc4cc(Cl)c(Cl)cc4n3C)nc2n1Cc1cccnc1N(C)S(C)(=O)=O [Compound B22]
